Tests used:
cIAP1-BIR3 = biological target: T1, cIAP1-BIR3 (Homo sapiens, UniProt Q13490); experiment: cIAP1-BIR3 fluorescence polarization binding assay; details: FP, probe AbuRPFK-5FAM (SM5F) 5 nM, cIAP1-BIR3 15 nM, 60 min at 25° C.
T1 construct: cIAP1-BIR3; purchased Reaction Biology APT-11-370
Source text: (§1) IAPs are one main cause of cancer development and may result from overexpression of anti-apoptotic proteins. This protocol establishes three binding assays for […] Bir3 domain, cIAP1 and cIAP2 using FP (fluorescence polariation) technology. The fluorescence probe used is a synthetic peptide conjugated to 5-carboxyfluorescein (AbuRPFK-5FAM). The fluorescence polarization value (mP) was detected by Envision, which was used to reflect the binding degree of protein and fluorescent marker.
(§2) • a. Prepare 100 times of the final cpd concentration in appropriate tube and transfer 5 uL cpd to 45 μL 1× reaction buffer with 10% DMSO • b. The final reference cpd concentration is 10000, 3333.3, 1111.1, 370.4, 123.4, 41.2, 13.7, 4.57, 1.52, 0.51, 0.17 and 0 nM. So the 100 times of the concentration is 1000, 333.3, 111.1, 37.04, 12.34, 4.12, […], 0.15, 0.05, 0.017 and 0 μM. The final test cpds concentration is 3333.3, 1111.1, 370.4, 123.4, 41.2, 13.7, 4.57, 1.52, 0.51, 0.17, 0.057 and 0 nM. So the 100 times of the concentration is 333.3, 111.1, 37.04, 12.34, 4.12, […], 0.15, 0.05, 0.017, 0.0057 and […] • c. Add 8 μL/well each dose enzyme to 384 wen microplate (ProxiPlate-384 F Plus, 6008260) using multichannel pipette, prepared in Table 3. • d. Centrifuge at 1000 rpm • e. Add 2 μL/well cpd to 384 well microplate (ProxiPlate-384 F Plus, 6008260) using multichannel pipette, prepared in step a). • f. Centrifuge at 1000 rpm RT, 15 min. • g Start the assay by adding 10 uL/well substrate (prepared in Table 4) to the same 384 wen microplate using multichannel pipette. • h. Centrifuge at 1000 rpm. • i. Cover the assay plate and incubate for 60 min at 25° C. • j. Read on Envision 2104 for mP and plot the IC50s with mP values. • k. Data analysis: IC50s were determined based on a non-linear regression analysis of data collected.

cIAP2-BIR3 = biological target: T2, cIAP2-BIR3 (Homo sapiens, UniProt Q13489); experiment: cIAP2-BIR3 fluorescence polarization binding assay; details: FP, probe AbuRPFK-5FAM (SM5F) 5 nM, cIAP2-BIR3 80 nM, 60 min at 25° C.
T2 construct: cIAP2-BIR3; purchased Reaction Biology APT-11-372
T2 sequence (Q13489 238-349 limits assumed): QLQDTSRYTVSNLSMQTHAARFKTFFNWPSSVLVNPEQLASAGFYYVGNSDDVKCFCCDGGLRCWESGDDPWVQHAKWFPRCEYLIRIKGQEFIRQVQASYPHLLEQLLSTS
Source text: as §1, §2

XIAP-BIR3 = biological target: T3, XIAP-BIR3 (Homo sapiens, UniProt P98170); experiment: XIAP-BIR3 fluorescence polarization binding assay; details: FP, probe AbuRPFK-5FAM (SM5F) 5 nM, XIAP-BIR3 40 nM, 60 min at 25° C.
T3 construct: XIAP-BIR3; purchased Reaction Biology APT-11-374
T3 sequence (P98170 241-356 limits assumed): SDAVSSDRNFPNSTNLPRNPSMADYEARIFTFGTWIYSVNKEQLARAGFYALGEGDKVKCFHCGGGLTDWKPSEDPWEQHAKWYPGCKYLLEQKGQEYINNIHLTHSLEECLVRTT
Source text: as §1, §2

T1 sequence (Q13490 253-363 limits assumed): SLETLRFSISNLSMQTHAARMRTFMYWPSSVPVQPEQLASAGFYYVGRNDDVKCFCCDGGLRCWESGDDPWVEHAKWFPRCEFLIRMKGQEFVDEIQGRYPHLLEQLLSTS

Compound | IC50 (cIAP1-BIR3) | IC50 (cIAP2-BIR3) | IC50 (XIAP-BIR3)
CN[C@@H](C)C(=O)N[C@H](C(=O)N1CCC[C@H]1C(=O)N[C@@H]1CCc2c(-c3cccc4c3CC[C@H]4NC(=O)[C@@H]3CCCN3C(=O)[C@@H](NC(=O)[C@H](C)NC)C(C)C)cccc21)C(C)C [Compound V-G, (2S)-1-[(2S)-3-methyl-2-[(2S)-2-(methylamino)propanamido]butanoyl]-N-[(1R,1′R)-1′-[(2S)-1-[(2S)-3-methyl-2-[(2S)-2-(methylamino)propanamido]butanoyl]pyrrolidine-2-amido]-1H,1′H,2H,2′H,3H,3′H-[4,4′-biinden]-1-yl]pyrrolidine-2-carboxamide] | 1 to 10 nM | 10 to 100 nM | 10 to 100 nM
CN[C@@H](C)C(=O)N[C@H](C(=O)N1CCC[C@H]1C(=O)N[C@@H]1CCCc2c(-c3cccc4c3CCC[C@H]4NC(=O)[C@@H]3CCCN3C(=O)[C@@H](NC(=O)[C@H](C)NC)C(C)C)cccc21)C(C)C [Compound V-M, (2S)-1-[(2S)-3-methyl-2-[(2S)-2-(methylamino)propanamido]butanoyl]-N-[(5R,5′R)-5′-[(2S)-1-[(2S)-3-methy-2-[(2S)-2-(methylamino)propanamido]butanoyl]pyrolidine-2-amido]-5H,5′H,6H,6′H,7H,7′H,8H,8′H-[1,1′-binaphthalen]-5-yl]pyrrolidine-2-carboxamide] | 1 to 10 nM | 1 to 10 nM | 10 to 100 nM
CN[C@@H](C)C(=O)N[C@H](C(=O)N1CCC[C@H]1C(=O)N[C@@H]1CCCc2c(Oc3cccc4c3CCC[C@H]4NC(=O)[C@@H]3CCCN3C(=O)[C@@H](NC(=O)[C@H](C)NC)C3CCCCC3)cccc21)C1CCCCC1 [Compound X, (2S)-1-[(2S)-2-cyclohexyl-2-[(2S)-2-(methylamino)propanamido]acetyl]-N-[(1R)-5-[[(5R)-5-[(2S)-1-[(2S)-2-cyclohexyl-2-[(2S)-2-(methylamino)propanamido]acetyl]pyrrolidine-2-amido]-5,6,7,8-tetrahydronaphthalen-1-yl]oxy]-1,2,3,4-tetrahydronaphthalen-1-yl]pyrrolidine-2-carboxamide] | 1 to 10 nM | 10 to 100 nM | 10 to 100 nM
CN[C@@H](C)C(=O)N[C@H](C(=O)N1CCC[C@H]1C(=O)N[C@@H]1CCCc2c(Oc3cccc4c3CCC[C@H]4NC(=O)[C@@H]3CCCN3C(=O)[C@@H](NC(=O)[C@H](C)NC)C3CCOCC3)cccc21)C1CCOCC1 [Compound X-C, (S)-1-((S)-2-((S)-2-(methylamino)propanamido)-2-(tetrahydro-2H-pyran-4-yl)acetyl)-N—((R)-5-(((R)-5-((S)-1-((S)-2-((S)-2-(methylamino)propanamido)-2-(tetrahydro-2H-pyran-4-yl)acetyl)pyrrolidine-2-carboxamido)-5,6,7,8-tetrahydronaphthalen-1-yl)oxy)-1,2,3,4-tetrahydronaphthalen-1-yl)pyrrolidine-2-carboxamide] | 1 to 10 nM | 10 to 100 nM | 10 to 100 nM
CC[C@H](NC(=O)[C@H](C)NC)C(=O)N1CCC[C@H]1C(=O)N[C@@H]1CCCc2c(OCCCCCOc3cccc4c3CCC[C@H]4NC(=O)[C@@H]3CCCN3C(=O)[C@H](CC)NC(=O)[C@H](C)NC)cccc21 [Compound I-D, (2S)-1-[(2S)-2-[(2S)-2-(methylamino)propanamido]butanoyl]-N-[(1R)-5-[(5-[[(5R)-5-[(2S)-1-[(2S)-2-[(2S)-2-(methylamino)propanamido]butanoyl]pyrrolidine-2-amido]-5,6,7,8-tetrahydronaphthalen-1-yl]oxy]pentyl)oxy]-1,2,3,4-tetrahydronaphthalen-1-yl]pyrrolidine-2-carboxamide] | 1 to 10 nM | 1 to 10 nM | 10 to 100 nM
CN[C@@H](C)C(=O)N[C@@H](C)C(=O)N1CCC[C@H]1C(=O)N[C@@H]1CCCc2c(OCCCCCOc3cccc4c3CCC[C@H]4NC(=O)[C@@H]3CCCN3C(=O)[C@H](C)NC(=O)[C@H](C)NC)cccc21 [Compound I-C, (2S)-1-[(2S)-2-[(2S)-2-(methylamino)propanamido]popanoyl]-N-[(1R)-5-[(5-[[(5R)-5-[(2S)-1-[(2S)-2-[(2S)-2-(methylamino)propanamido]propanoyl]pyrrolidine-2-amido]-5,6,7,8-tetrahydmnaphthalen-1-yl]oxy]pentyl)oxy]-1,2,3,4-tetrahydronaphthalen-1-yl]pyrrolidine-2-carboxamide] | 1 to 10 nM | 10 to 100 nM | 100 to 1000 nM
CN[C@@H](C)C(=O)N[C@H](C(=O)N1CCC[C@H]1C(=O)N[C@@H]1CCOc2c(-c3cccc4c3OCC[C@H]4NC(=O)[C@@H]3CCCN3C(=O)[C@@H](NC(=O)[C@H](C)NC)C(C)(C)C)cccc21)C(C)(C)C [Compound V-D, (2S)-1-[(2S)-3,3-dimethyl-2-[(2S)-2-(methylamino)propanamido]butanoyl]-N-[(4R)-8-[(4R)-4-[(2S)-1-(2S)-3,3-dimethyl-2-[(2S)-2-(methylamino)propanamido]butanoyl]pyrrolidine-2-amido]-3,4-dihydro-2H-1-benzopyran-8-yl-3,4-dihydro-2H-1-benzopyran-4-yl]pyrrolidine-2-carboxamide] | 1 to 10 nM | 10 to 100 nM | 10 to 100 nM
CN[C@@H](C)C(=O)N[C@H](C(=O)N1CCC[C@H]1C(=O)N[C@@H]1CCCc2c(-c3ccc4cc(-c5cccc6c5CCC[C@H]6NC(=O)[C@@H]5CCCN5C(=O)[C@@H](NC(=O)[C@H](C)NC)C5CCCCC5)ccc4c3)cccc21)C1CCCCC1 [Compound III-B, (2S)-1-[(2S)-2-Cyclohexyl-2-[(2S)-2-(methylamino)propanamido]acetyl]-N-[(1R)-5-{6-[(5R)-5-[(2S)-1-[(2S)-2-cyclohexyl-2-[(2S)-2-(methylamino)propanamido]acetyl]pyrrolidine-2-amido]-5,6,7,8-tetrahydronaphthalen-1-yl]naphthalen-2-yl}-1,2,3,4-tetrahydmnaphthalen-1-yl]pyrrolidine-2-carboxamide] | 1 to 10 nM | 10 to 100 nM | 10 to 100 nM
CN[C@@H](C)C(=O)N[C@H](C(=O)N1CCC[C@H]1C(=O)N[C@@H]1CCCc2c(-c3cccc(-c4cccc5c4CCC[C@H]5NC(=O)[C@@H]4CCCN4C(=O)[C@@H](NC(=O)[C@H](C)NC)C(C)(C)C)c3)cccc21)C(C)(C)C [Compound III-F, (2S)-1-[(2S)-3,3-dimethyl-2-[(2S)-2-(methylamino)propanamido]butanoyl]-N-[(1R)-5-[3-[(5R)-5-[(2S)-1-[(2S)-3,3-dimethyl-2-[(2S)-2-(methylamino)propanamido]butanoyl]pyrrolidine-2-amido]-5,6,7,8-tetrahydronaphthalen-1-yl]phenyl]-1,2,3,4-tetrahydronaphthalen-1-yl]pyrrolidine-2-carboxamide] | 1 to 10 nM | 10 to 100 nM | 10 to 100 nM
CN[C@@H](C)C(=O)N[C@@H](C)C(=O)N1CCC[C@H]1C(=O)N[C@@H]1CCCc2c(-c3ccc(-c4cccc5c4CCC[C@H]5NC(=O)[C@@H]4CCCN4C(=O)[C@H](C)NC(=O)[C@H](C)NC)cc3)cccc21 [Compound III-H, (2S)-1-[(2S)-2-[(2S)-2-(methylamino)propanamido]propanoyl]-N-[(1R)-5-[4-[(5R)-5-[(2S)-1-[(2S)-2-[(2S)-2-(methylamino)propanamido]propanoyl]pyrrolidine-2-amido]-5,6,7,8-tetrahydronaphthalen-1-yl]phenyl]-1,2,3,4-tetrahydronaphthalen-1-yl]pyrrolidine-2-carboxamide] | 1 to 10 nM | 10 to 100 nM | 100 to 1000 nM
CN[C@@H](C)C(=O)N[C@H](C(=O)N1CCC[C@H]1C(=O)N[C@@H]1CCOc2c(-c3cccc4c3OCC[C@H]4NC(=O)[C@@H]3CCCN3C(=O)[C@@H](NC(=O)[C@H](C)NC)C3CCOCC3)cccc21)C1CCOCC1 [Compound V-Q, (S)-1-((S)-2-((S)-2-(methylamino)propanamido)-2-(tetrahydro-2H-pyran-4-yl)acetyl)-N-((4R,4′R)-4′-((S)-1-((S)-2-((S)-2-(methylamino)propanamido)-2-(tetrahydro-2H-pyran-4-yl)acetyl)pyrrolidine-2-carboxamido)-[8,8′-bichroman]-4-yl)pyrrolidine-2-carboxamide] | 1 to 10 nM | 10 to 100 nM | 10 to 100 nM

Reference: patent US20220220152A1, “BIVALENT ANTAGONISTS OF INHIBITORS OF APOPTOSIS PROTEINS” (Hepagene Therapeutics (HK) Limited, priority 2019, published 2022)
